ChEMBL document CHEMBL5370631, “Emopamil-Binding Protein Inhibitors for Treating Multiple Sclerosis” (ACS Med Chem Lett, 2023)

target: 3-beta-hydroxysteroid-Delta(8),Delta(7)-isomerase (Homo sapiens, UniProt Q15125); assay: Inhibition of human EBP isolated from HEK293T cells assessed as reduction in dihydrolathosterol-d5 formation using zymosterol-d5 as substrate pre incubated for 30 mins followed by substrate addition and incubated at 37 degC for 4 hrs by LC-APCI MRM MS analysis; assay type: cell-free, HEK-293T
Sequence (Q15125 whole entry): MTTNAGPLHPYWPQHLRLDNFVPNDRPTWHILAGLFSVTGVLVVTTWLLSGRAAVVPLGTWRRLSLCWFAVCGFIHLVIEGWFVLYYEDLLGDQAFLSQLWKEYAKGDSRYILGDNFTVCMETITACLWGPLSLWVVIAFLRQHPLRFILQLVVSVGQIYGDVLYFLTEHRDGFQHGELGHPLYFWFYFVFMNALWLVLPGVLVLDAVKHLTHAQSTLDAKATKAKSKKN

Row | SMILES | IC50 [nM]
1 | CC1CCN([C@H]2C[C@H]3CC[C@@H](C2)N3S(=O)(=O)c2ccc(OC(F)F)cc2)CC1 | < 50
2 | CC12CC(NC3CC4CCC(C3)N4S(=O)(=O)c3ccc(OC(F)F)cc3)(CO1)C2 (stereo unspecified) | < 50
3 | Cc1cc(S(=O)(=O)N2[C@@H]3CC[C@H]2C[C@@H](CN2CCOCC2)C3)n(C)n1 | < 50
4 | O=S(=O)(c1ccc(OC(F)F)cc1)N1C2CCC1CC(NC1CCOCC1)C2 (stereo unspecified) | < 50
5 | O=S(=O)(c1ccc(OC(F)F)cc1)N1C2CCC1CC(NCC1CCOCC1)C2 (stereo unspecified) | < 50
6 | O=S(=O)(c1ccc(OC(F)F)cc1)N1[C@@H]2CC[C@H]1C[C@@H](NCC1(O)CCOCC1)C2 | < 50
